# Entries after “also recorded” stand apart in the source; their conditions may differ.
# Key:
# [1] = Phase 1 clinical trial: pharmacokinetics of AZD9833 in plasma; type: in vivo, human
# Excerpt: The “median terminal half-life” is the median time for a patient's drug blood plasma concentration to halve after reaching pseudo-equilibrium.
# Pharmacokinetics: The characterisation of the pharmacokinetics of single and multiple doses of AZD9833 is a secondary objective of this study. Any residual sample remaining after PK analysis has been performed may be used to identify, characterise, and establish the concentration of AZD9833 metabolites and drug-related products in plasma, and/or to conduct exploratory biomarker research. Analysis of AZD9833 in plasma and urine will be performed using appropriate bioanalytical methods. Full details of the analytical methods used will be described in separate bioanalytical reports.
# All samples within the known stability of the analytes of interest at the time of receipt by the bioanalytical laboratory will be analysed. In addition, the PK samples may be subjected to further analyses to identify, characterise, and establish the concentration of metabolites in plasma. Any results from such analyses will be reported separately from the clinical study report. Incurred sample reproducibility analysis, if any, will be performed with the bioanalysis of the test samples. The results from the evaluation will not be reported in the clinical study report but, separately, in a bioanalytical report. […]
# [2] = test system: women with ER+ HER2- advanced breast cancer; assay: Phase 1 clinical trial: safety and tolerability (AEs, DLTs); type: in vivo
# Method: “Grade 4 or 5 adverse events” can be classified according to the common terminology criteria for adverse events (CTCAE).
# Dose Limiting Toxicity (DLT): a DLT is defined as an AE or abnormal laboratory value that occurs from the first dose of AZD9833 up to and including Day 28, Cycle 1 (the DLT period) that is assessed as unrelated to disease progression, intercurrent illness, or concomitant medications and that, despite optimal therapeutic intervention, meets any of the following criteria: • (a) Any death not clearly due to the underlying disease or extraneous causes • (b) Haematological toxicities as follows (CTCAE): • (i) Any >Grade 4 haematological toxicity present for more than 4 consecutive days, or requiring blood transfusions, G-CSF, or erythropoietins. • (ii)>Grade 3 neutropenia of any duration accompanied with fever ≥38.5° C. and/or systemic infection. • (iii)>Grade 3 thrombocytopenia of any duration with bleeding. • (iv) Grade 4 thrombocytopenia (regardless of duration or bleeding) • (c) Any non-haematological toxicity CTCAE >Grade 3 but with the following conditional stipulations: • (i) Nausea >CTCAE Grade 3 for more than 3 consecutive days despite administration of maximal anti-emetic therapy. • (ii) Vomiting >CTCAE Grade 3 for more than 3 consecutive days despite administration of maximal anti-emetic therapy. • (iii) Vomiting >CTCAE Grade 4 (regardless of duration) • (iv) Diarrhoea >CTCAE Grade 3 for more than 3 consecutive days despite administration of maximal anti-diarrheal therapy. • (v) Diarrhoea ≥ CTCAE Grade 4 (regardless of duration) • (vi) CTCAE Grade ≥3 fatigue that persists for more than 4 days. • (vii) CTCAE Grade ≥3 increase in creatinine. • (d) Other toxicity: • (i) QTcF value >500 ms or QTcF prolongation from baseline by 60 ms and >480 ms confirmed on at least 2 separate ECGs. • (ii)>CTCAE Grade 4 electrocardiogram QT corrected interval prolongation. • (iii) An increase in serum/plasma AST or ALT ≥3×ULN and concurrent TBL ≥2 ULN. • (e) Any other toxicity that: • (i) Is greater than at baseline and is clinically significant and/or unacceptable despite optimal therapeutic intervention, and is judged to be a DLT by the SRC, or • (ii) Results in a disruption of the dosing schedule of more than 14 days despite optimal therapeutic intervention.
# Safety and Clinical Assessments: The safety and tolerability of AZD9833 is the primary objective of this study. Related outcome measures are DLTs, AEs/SAEs, vital signs, clinical chemistry/haematology, and ECGs.
# Clinical Safety Laboratory Assessments: Clinical chemistry, haematology, and urinalysis and coagulation will be performed at a local laboratory at or near to the investigator study site. Sample tubes and sample sizes may vary depending on laboratory method used and routine practice at the study site.
# A clinical trial according to the above protocol was carried out using 60 patients.
# [3] = test system: ER signalling pathway / Ki67; assay: Phase 1 clinical trial: pharmacodynamic biomarkers in paired tumour biopsies; type: in vivo, human
# Excerpt: Pharmacodynamics: Pharmacodynamic measurements will be made on a number of biomarkers (e.g., optional tumour biopsies, plasma ctDNA, CTC, and archival tumour tissue). Biological samples (archival tumour tissue, mandatory and optional biopsies where applicable) will be collected for the analysis of tumour DNA as an exploratory objective in this study. A 2-mL blood sample for DNA isolation will be collected prior to administration of the first dose of AZD9833 from subjects who have consented to participate in the genetic analysis component of this study. If for any reason the sample is not drawn prior to dosing, it may be taken at any visit until the last study visit. Only one sample for genetic research should be collected per subject during the study. Participation is optional.
# In Part A, paired tumour biopsy samples will be taken from at least 2 subjects at each dose level. In Part B, these biopsies will be taken from at least 5 post-menopausal subjects at each AZD9833 dose level, 300 mg, 150 mg and 75 mg and at least 5 from pre-menopausal subjects at 300 mg. If subjects are willing to participate in this part of the study, they will sign a biopsy-specific written informed consent. Paired tumour biopsies will be obtained from subjects with accessible tumours who have consented to biopsies. […]
structure (smiles),measurement,setting,value
"C[C@@H]1Cc2c(ccc3[nH]ncc23)[C@@H](c2ccc(NC3CN(CCCF)C3)cn2)N1CC(F)(F)F [AZD9833, N-(1-(3-fluoropropyl)azetidin-3-yl)-6-((6S,8R)-8-methyl-7-(2,2,2-trifluoroethyl)-6,7,8,9-tetrahydro-3H-pyrazolo[4,3-f]isoquinolin-6-yl) pyridin-3-amine]",AZD9833 exposure versus dose,[1]; after multiple doses,dose proportional
same,half-life,"[1]; human, plasma, patients, oral QD dosing, across five doses, read-out: median terminal t1/2 (converted)",12 h
same,DLT observed,[2]; 300 mg,G3 QTcF prolongation
same,DLT observed,[2]; 450 mg,"G3 vomiting; also recorded: a combination of G2 visual disturbance, G2 headache and G2 gait disturbance"
same,G4 or 5 AEs,"[2]; 60 patients, all doses",No G4 or 5 AEs were reported
same,"Treatment-related AE: asthenia, patients affected","[2]; 60 patients, all doses",10%
same,"Treatment-related AE: bradycardia/sinus bradycardia, patients affected","[2]; 60 patients, all doses",45%
same,"Treatment-related AE: dizziness, patients affected","[2]; 60 patients, all doses",10%
same,"Treatment-related AE: fatigue, patients affected","[2]; 60 patients, all doses",13%
same,"Treatment-related AE: nausea, patients affected","[2]; 60 patients, all doses",18%
same,"Treatment-related AE: visual disturbances, patients affected","[2]; 60 patients, all doses",53%
same,"Treatment-related AE: vomiting, patients affected","[2]; 60 patients, all doses",10%
same,clinical relevance of observed AEs,"[2]; 60 patients, all doses",None of the observed AEs were deemed to be clinically relevant
same,patients who experienced DLTs,"[2]; of 60 patients, all doses",Three
same,"asthenia, share G1","[2]; of affected patients, grade 1",67%
same,"bradycardia/sinus bradycardia, share G1","[2]; of affected patients, grade 1",93%
same,"dizziness, share G1","[2]; of affected patients, grade 1",83%
same,"fatigue, share G1","[2]; of affected patients, grade 1",38%
same,"nausea, share G1","[2]; of affected patients, grade 1",46%
same,"visual disturbances, share G1","[2]; of affected patients, grade 1",91%
same,"vomiting, share G1","[2]; of affected patients, grade 1",50%
same,"asthenia, share G2","[2]; of affected patients, grade 2",33%
same,"bradycardia/sinus bradycardia, share G2","[2]; of affected patients, grade 2",7%
same,"fatigue, share G2","[2]; of affected patients, grade 2",63%
same,"nausea, share G2","[2]; of affected patients, grade 2",55%
same,"visual disturbances, share G2","[2]; of affected patients, grade 2",6%
same,"vomiting, share G2","[2]; of affected patients, grade 2",33%
same,"dizziness, share G3","[2]; of affected patients, grade 3",17%
same,"visual disturbances, share G3","[2]; of affected patients, grade 3",3%
same,"vomiting, share G3","[2]; of affected patients, grade 3",17%
same,ER signalling pathway modulation,[3]; all dose cohorts,observed in all dose cohorts
same,reduction in Ki67,[3]; patients where clinical responses occurred and paired biopsies obtained,98%
